Data: PubChem BioAssay AID406 (SGCOxCompounds, 2006)

These compounds were tested against mRNA-capping enzyme (Homo sapiens) (UniProt O60942) (assay: RNGTT phosphatase activity inhibitors, biochemical, DiFMUP fluorescence, recombinant (AID 406)). Conditions: at 50 µM, active compounds read high.
Sequence of mRNA-capping enzyme (Homo sapiens) (O60942 whole entry, looked up): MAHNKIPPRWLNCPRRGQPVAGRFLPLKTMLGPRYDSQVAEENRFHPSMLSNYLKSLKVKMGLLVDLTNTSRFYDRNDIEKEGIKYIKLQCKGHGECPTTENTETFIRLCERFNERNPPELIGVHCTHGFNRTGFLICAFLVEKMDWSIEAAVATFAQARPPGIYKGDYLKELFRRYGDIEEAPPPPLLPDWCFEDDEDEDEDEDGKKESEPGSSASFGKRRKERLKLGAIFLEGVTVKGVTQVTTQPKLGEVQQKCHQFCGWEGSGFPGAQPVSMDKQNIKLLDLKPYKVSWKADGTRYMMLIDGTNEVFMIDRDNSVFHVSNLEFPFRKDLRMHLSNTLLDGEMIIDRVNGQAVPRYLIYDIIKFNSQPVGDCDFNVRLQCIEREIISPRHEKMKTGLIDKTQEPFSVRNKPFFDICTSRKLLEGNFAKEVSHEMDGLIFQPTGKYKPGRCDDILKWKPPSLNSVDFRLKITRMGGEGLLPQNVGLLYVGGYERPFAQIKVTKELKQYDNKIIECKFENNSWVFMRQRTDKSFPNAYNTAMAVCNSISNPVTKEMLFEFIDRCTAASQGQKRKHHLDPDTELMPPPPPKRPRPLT

| SMILES | inhibition |
| --- | --- |
| O=C(O)c1ccc([O-])cn1.OO.OO.[K+].[K+].[O]=[V] | 47% |
| O=C([O-])c1ccccn1.OO.OO.[K+].[K+].[O]=[V] | 36% |
| O=C(O)c1ccc(O)cn1.OO.[O]=[V] | 51% |
| O=C1NC(=S)S/C1=C\C=C\c1ccc([N+](=O)[O-])o1 | 60% |
| O=C1NC(=S)NC(=O)C1=C/C=C/c1ccco1 | 22% |
| CC(=O)c1ccc2c(c1)C1C=CCC1C(C(=O)O)N2 (configuration not stated) | 41% |
| c1ccc([C@H]2CN3CCSC3=N2)cc1 | 29% |
| NC1=NC(=O)/C(=C/C=C/c2ccc([N+](=O)[O-])o2)S1 | 33% |
| OO.OO.[K+].[O]=[V].c1ccc(-c2ccccn2)nc1 | 41% |
| CN(N=O)c1ccc(O)c(O)c1 | 33% |
| CC(C)(c1ccc(NS(=O)(=O)C(F)(F)F)cc1)c1ccc(C(C)(C)c2ccc(NS(=O)(=O)C(F)(F)F)cc2)cc1 | 37% |
| OO.OO.[K+].[O]=[V].c1cnc2c(c1)ccc1cccnc12 | 22% |
